# Source: patent publication US6576662B2, “Compounds having anticancer activity : process for their preparation and pharmaceutical compositions containing them” (Dr. Reddy's Laboratories Limited, priority 2000, dated 2003)
# Where two headings read alike, the source gives them in different places.
# Columns and labels:
# A498 = assay: in vitro anti-cancer screen, Sulforhodamine B method; type: cell-based, human; conditions: RENAL: A498, 48 h incubation, read-out: GROWTH INHIBITION (GI 50)
# Method: (§1) Each test compound was screened against a battery of cell lines representing eight different types of cancers. In a typical procedure, 1×10^4 cells were seeded into each well of 96 well plate in 100 μL volume of RPMI 1640 medium containing antibiotics and 10% FCS.
# (§2) The plates were incubated at 37° C. in presence of CO2. After 24 h, test compounds were evaluated at five 10 fold dilutions ranging from 100 to 0.01 μM. To each test well 100 μL of test compound solution was added and medium with vehicle was added to control wells and the plates were further incubated. After 48 h of incubation, plates were terminated by Sulforhodamine B method.
# (§3) The optical density which is proportional to protein mass, is then-read by automated spectrophotometric plate reader at a wavelength of 515 nm.
# DU145 = assay: as above; type: cell-based, human; conditions: PROSTATE: DU145, 48 h incubation, read-out: GROWTH INHIBITION (GI 50)
# Method: as §1, §2, §3
# H522 = assay: as above; type: cell-based, human; conditions: LUNG: H522, 48 h incubation, read-out: GROWTH INHIBITION (GI 50)
# Method: as §1, §2, §3
# HT29 = assay: as above; type: cell-based, human; conditions: Homo sapiens, HT-29; COLON: HT29; 48 h incubation; read-out: GROWTH INHIBITION (GI 50)
# Method: as §1, §2, §3
# MCF-7/ADR = assay: as above; type: cell-based, human; conditions: BREAST: MCF-7/ADR, 48 h incubation, read-out: GROWTH INHIBITION (GI 50)
# Method: as §1, §2, §3
# MCF7 = assay: as above; type: cell-based, human; conditions: Homo sapiens; BREAST: MCF7; 48 h incubation; read-out: GROWTH INHIBITION (GI 50)
# Method: as §1, §2, §3
# PA1 = assay: as above; type: cell-based, human; conditions: Homo sapiens, PA-1; OVARIAN: PA1; 48 h incubation; read-out: GROWTH INHIBITION (GI 50)
# Method: as §1, §2, §3
# SKOV-3 = assay: as above; type: cell-based, human; conditions: OVARIAN: SKOV-3, 48 h incubation, read-out: GROWTH INHIBITION (GI 50)
# Method: as §1, §2, §3
# SW-620 = assay: as above; type: cell-based, human; conditions: COLON: SW-620, 48 h incubation, read-out: GROWTH INHIBITION (GI 50)
# Method: as §1, §2, §3
# U251 = assay: as above; type: cell-based, human; conditions: CNS: U251, 48 h incubation, read-out: GROWTH INHIBITION (GI 50)
# Method: as §1, §2, §3
# UACC62 = assay: as above; type: cell-based, human; conditions: Homo sapiens, UACC-62; MELANOMA: UACC62; 48 h incubation; read-out: GROWTH INHIBITION (GI 50)
# Method: as §1, §2, §3
# PC-3 = assay: as above; type: cell-based; conditions: Homo sapiens; PROSTATE: PC-3; 48 h incubation; read-out: GROWTH INHIBITION (GI 50)
# Method: as §1, §2, §3
# Human lymphocytes = assay: Lymphocyte proliferation, tritiated thymidine incorporation; type: cell-based; conditions: Concentration 1 μM; human lymphocytes with Phytohemagglutitin A
# Method: Human lymphocytes were isolated from whole blood by using Ficoll Hypaque Plus (Amersham). On day one, 1 million lymphocytes were seeded into each well of 96 well plate in 100 μL volume of RPMI 1640 medium containing 10% FCS and Phytohemagglutitin A at 1 μg/well concentration. Plates were incubated at 37° C. in CO2 incubator for 24 h. Test compounds at various concentrations were added to test wells and only medium with vehicle was added to control wells. After 48 h of incubation […] of tritiated thymidine was added to each well. After 24 h of thymidine addition the cells were harvested and the incorporated radioactivity was determined. Stimulation Index (SI) was calculated using the formula, [formula]
# A^T=Average CPM of treated wells,
# A^C=Average CPM of control wells.
# M14 = assay: in vitro anti-cancer screen, Sulforhodamine B method; type: cell-based, human; conditions: MELANOMA: M14; 48 h incubation; read-out: GROWTH INHIBITION (GI 50)
# Method: as §1, §2, §3
# tumor cell lines = conditions: cited from earlier work
# ACHN = assay: in vitro anti-cancer screen, Sulforhodamine B method; type: cell-based; conditions: Homo sapiens; RENAL: ACHN; 48 h incubation; read-out: GROWTH INHIBITION (GI 50)
# Method: as §1, §2, §3
# OVCAR = assay: as above; type: cell-based; conditions: Homo sapiens; OVARIAN: OVCAR; 48 h incubation; read-out: GROWTH INHIBITION (GI 50)
# Method: as §1, §2, §3
SMILES,"GI50 (DU145; Homo sapiens, DU-145) [µM]","GI50 (H522; Homo sapiens, NCI-H522) [µM]",GI50 (HT29) [µM],"GI50 (MCF-7/ADR; Homo sapiens, NCI/ADR-RES) [µM]",GI50 (MCF7) [µM],GI50 (PA1) [µM],"GI50 (SKOV-3; Homo sapiens, SK-OV-3) [µM]",GI50 (SW-620; Homo sapiens) [µM],"GI50 (U251; Homo sapiens, U-251) [µM]",GI50 (UACC62) [µM],GI50 (PC-3) [µM],melting point [°C],GI50 (A498) [µM],GI50 (DU145) [µM],GI50 (H522) [µM],GI50 (M14) [µM],GI50 (MCF-7/ADR) [µM],GI50 (SKOV-3) [µM],GI50 (SW-620) [µM],GI50 (U251) [µM],other results
"C=C1CCC2[C@](C)(CO)[C@H](O)CC[C@]2(C)[C@H]1CC(NCc1ccccc1)C1=CCOC1=O (stereo partly shown) [Example 18, 12-(N-Benzylamino)-14-deoxy andrographolide]",10,6,10,2.5,3,3,4,2.5,0.07,3.5,2.5,192,,,,,,,,,GI50 (A498; Homo sapiens): 2.5 µM; Stimulation Index (SI) (Human lymphocytes): 64
"C=C1CCC2C(C)(COC(C)=O)C(OC(C)=O)CCC2(C)C1CC(NCc1ccc(OC)cc1)C1=CCOC1=O (stereo not shown) [Example 3, 3,19-Diacetyl-14-deoxy-12-(N-4-methoxybenzylamino)andrographolide]",,,,,,,,,,,,,0.18,8,0.18,5.5,5,0.15,3.5,8,
"C=C1CCC2[C@](C)(CO)[C@H](O)CC[C@]2(C)[C@H]1CC(C1=CCOC1=O)n1cc(F)c(=O)[nH]c1=O (stereo partly shown) [Example 51, 14-Deoxy-12-[N^1-(5-fluorouracil)]andrographolide]",15,5,10,4,4,3,7,3.5,2,6,3,155,,,,,,,,,GI50 (A498; Homo sapiens): 2.5 µM
"C=C1CCC2[C@](C)(CC[C@@H](O)[C@@]2(C)CO)C1/C=C/C1=CCOC1=O (stereo partly shown) [14-deoxy-11,12-didehydroandrographolide]",,,,,,,,,,,,,,,,,,,,,cytotoxic activity (tumor cell lines): no cytotoxic activity
"CC(=O)OCC1(C)C(OC(C)=O)CCC2(C)C(CC(Sc3ccccc3)C3=CCOC3=O)C3(CCC12)CO3 (stereo not shown) [Example 70, 3,19-Diacetyl-14-deoxy-8,17-epoxy-12-phenylthio andrographolide]",,,,,,,,,,,,,4,2,7,3,8,4,4,7,
"C=C1CCC2[C@]3(C)COC(C)(c4ccccc4)OC3CC[C@]2(C)[C@H]1CC(NC(Cc1ccccc1)C(=O)OC)C1=CCOC1=O (stereo partly shown) [Example 22, 14-Deoxy-12-(O-methylphenylalanino)-3,19-O-(1-phenylethylidene)andrographolide]",12,20,3,2,3,1.4,4,3,3,3,2,171.6 to 171.9,,,,,,,,,GI50 (ACHN): 14 µM; GI50 (OVCAR): 1.4 µM
C=C1CC[C@@H]2[C@](C)(CO[C@@H]3O[C@H](CO)[C@@H](O)[C@H](O)[C@H]3O)CCC[C@@]2(C)[C@@H]1CCC1=CCOC1=O [neoandrographolide],,,,,,,,,,,,,,,,,,,,,cytotoxic activity (tumor cell lines): no cytotoxic activity
"C=C1CCC2[C@]3(C)COC(C)(c4ccccc4)O[C@@H]3CC[C@]2(C)[C@H]1CC(C1=CCOC1=O)N1CCCC1C(=O)OC (stereo partly shown) [Example 23, 14-Deoxy-12-(O-methylprolino)-3,19-O-(1-phenylethylidene)andrographolide]",11,15,3,2,4,1,4,2,2,2,2,141 to 143,,,,,,,,,GI50 (ACHN): 13 µM; GI50 (OVCAR): 1 µM
"C=C1CCC2C(C)(COC(C)=O)C(OC(C)=O)CCC2(C)C1CC(Sc1ccccc1)C1=CCOC1=O (stereo not shown) [Example 58, 3,19-Diacetyl-14-deoxy-12-phenylthio andrographolide]",,,,,,,,,,,,,0.2,7.5,7,4,6.5,6,5,4,Stimulation Index (SI) (Human lymphocytes): 99
